Results reported in ChEMBL document CHEMBL1201862, “PubChem BioAssay data set” (2004).
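Grown in 96-well plates, cells were treated for 48 hours with each compound at five concentrations. Insufficient inhibition: endpoint recorded as highest concentration tested. Abbreviation: GI50, concentration required for 50% inhibition of growth.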 Calls of active or inactive are those of the source. Rule as the data show it: active = GI50 up to about 1.1 µM and inactive = higher.

How the values were obtained:
Test in all cases: growth of human tumour cells (NCI), 48 h
SK-MEL-2 = tested on: SK-MEL-2
NCI-H460 = tested on: NCI-H460
A549 = tested on: A549
IGROV-1 = tested on: IGROV-1
SK-MEL-5 = tested on: SK-MEL-5
RPMI-8226 = tested on: RPMI-8226
COLO 205 = tested on: COLO 205
TK-10 = tested on: TK-10
T47D = tested on: T47D
CCRF-CEM = tested on: CCRF-CEM
U-251 = tested on: U-251
RXF 393 = tested on: RXF 393
MCF7 = tested on: MCF7
HCT-15 = tested on: HCT-15
SK-MEL-28 = tested on: SK-MEL-28
OVCAR-8 = tested on: OVCAR-8
HOP-62 = tested on: HOP-62
ACHN = tested on: ACHN
DU-145 = tested on: DU-145
SK-OV-3 = tested on: SK-OV-3

Structure (SMILES) | GI50 (SK-MEL-2) | GI50 (NCI-H460) | GI50 (A549) | GI50 (IGROV-1) | GI50 (SK-MEL-5) | GI50 (RPMI-8226) | GI50 (COLO 205) | GI50 (TK-10) | GI50 (T47D) | GI50 (CCRF-CEM) | GI50 (U-251) | GI50 (RXF 393) | GI50 (MCF7) | GI50 (HCT-15) | GI50 (SK-MEL-28) | GI50 (OVCAR-8) | GI50 (HOP-62) | GI50 (ACHN) | GI50 (DU-145) | GI50 (SK-OV-3)
COc1cc2c(cc1OC)C(C1CC1)ON(C)CC2 (stereo not drawn) | > 100 µM (inactive) | > 100 µM (inactive) | > 100 µM (inactive) | > 100 µM (inactive) | > 100 µM (inactive) | > 100 µM (inactive) | > 100 µM (inactive) | > 100 µM (inactive) | > 100 µM (inactive) | > 100 µM (inactive) | > 100 µM (inactive) | > 100 µM (inactive) | > 100 µM (inactive) | > 100 µM | > 100 µM (inactive) | > 100 µM (inactive) | > 100 µM (inactive) | > 100 µM (inactive) | > 100 µM (inactive) | 
C=C(C)C1Cc2c(cc(O)c3c(=O)c4c(oc23)C(O)Oc2cc(OC)c(OC)cc2-4)O1 (stereo not drawn) |  | > 10 µM (inactive) | > 10 µM (inactive) | > 10 µM (inactive) |  | > 10 µM (inactive) | > 10 µM (inactive) | > 10 µM (inactive) | > 10 µM (inactive) | > 10 µM (inactive) | > 10 µM (inactive) | > 10 µM (inactive) | > 10 µM (inactive) | > 10 µM | > 10 µM (inactive) | > 10 µM (inactive) | > 10 µM (inactive) | > 10 µM (inactive) | > 10 µM (inactive) | 
COc1ccc2c(c1)CCN1CCc3cc(OC)c(OC)cc3CC21 (stereo not drawn) |  |  | > 100 µM (inactive) | > 10 µM (inactive) |  | 65.5 µM (inactive) | 21.3 µM (inactive) | > 100 µM (inactive) | 73.3 µM (inactive) | 55 µM (inactive) | 72.3 µM (inactive) | 69 µM (inactive) | 90.4 µM (inactive) | 61 µM | > 100 µM (inactive) | > 100 µM (inactive) |  | > 100 µM (inactive) | > 100 µM (inactive) | > 100 µM (inactive)
O=[N+]([O-])c1cccc2nnccc12 | 24.7 µM (inactive) | 19.1 µM (inactive) | 54.8 µM (inactive) | 24.7 µM (inactive) | 14.1 µM (inactive) | 22 µM (inactive) | 13.3 µM (inactive) | 46.3 µM (inactive) | 36.8 µM (inactive) |  | 41.6 µM (inactive) | 63.5 µM (inactive) | 21.1 µM (inactive) | 12.9 µM |  | 31.9 µM (inactive) |  | 11.7 µM (inactive) | 38.7 µM (inactive) | 93.3 µM (inactive)
C=C(C)[C@H]1C[C@@H]2O[C@@](O)(/C(C)=C\C(=O)/C=C(/C)C[C@H]3OC(=O)[C@@]24O[C@H]34)[C@@H]1O | > 100 µM (inactive) | > 100 µM (inactive) | > 100 µM (inactive) | > 100 µM (inactive) | > 100 µM (inactive) | > 100 µM (inactive) | > 100 µM (inactive) | > 100 µM (inactive) | > 100 µM (inactive) | > 100 µM (inactive) | > 100 µM (inactive) | 25.7 µM (inactive) | > 100 µM (inactive) | > 100 µM | > 100 µM (inactive) | > 100 µM (inactive) |  | > 100 µM (inactive) | > 100 µM (inactive) | > 100 µM (inactive)
Cc1cc(C#N)c(Nc2ccccc2[N+](=O)[O-])s1 |  | 36.6 µM (inactive) | 85.3 µM (inactive) | 13.8 µM (inactive) |  | 22.6 µM (inactive) | 29.6 µM (inactive) |  | 36.6 µM (inactive) | 39.3 µM (inactive) | 20.3 µM (inactive) | 3.96 µM (inactive) | 32.5 µM (inactive) | 28.8 µM | 45.2 µM (inactive) | 31 µM (inactive) | 24.3 µM (inactive) | 58.7 µM (inactive) | 17.7 µM (inactive) | 26.4 µM (inactive)
COc1ccc(C(=O)/C=C/c2ccc(OCC#N)cc2)cc1OC |  | 27.7 µM (inactive) | 29.1 µM (inactive) | 30.5 µM (inactive) | 18.3 µM (inactive) |  | 11.9 µM (inactive) | 26.9 µM (inactive) | 5.79 µM (inactive) | 3.21 µM (inactive) | 14.3 µM (inactive) | 13.2 µM (inactive) | 3.15 µM (inactive) | 20 µM | 14.6 µM (inactive) | 28 µM (inactive) | 15.5 µM (inactive) | 30.1 µM (inactive) | 11.6 µM (inactive) | 26.5 µM (inactive)
O=C1NC(=O)C(C(c2ccc([N+](=O)[O-])cc2)C2C(=O)NC(=O)NC2=O)C(=O)N1 | > 100 µM (inactive) | > 100 µM (inactive) | > 100 µM (inactive) | > 100 µM (inactive) | > 100 µM (inactive) | > 100 µM (inactive) | > 100 µM (inactive) | > 100 µM (inactive) | > 100 µM (inactive) | 62.1 µM (inactive) | > 100 µM (inactive) | > 100 µM (inactive) | > 100 µM (inactive) | > 100 µM | > 100 µM (inactive) | > 100 µM (inactive) | > 100 µM (inactive) | > 100 µM (inactive) | > 100 µM (inactive) | 
CC1=C(C)C(=O)C(C2=CC(=O)C=CC2=O)=C(C2=CC(=O)C=CC2=O)C1=O | > 100 µM (inactive) | > 100 µM (inactive) | 98.9 µM (inactive) | 21.4 µM (inactive) | 21.3 µM (inactive) |  | 56 µM (inactive) | > 100 µM (inactive) | 26.4 µM (inactive) | 14.1 µM (inactive) | 32.7 µM (inactive) | 41.9 µM (inactive) | 26.4 µM (inactive) | 41 µM | > 74 µM (inactive) | 36.6 µM (inactive) | > 100 µM (inactive) | 59.4 µM (inactive) | > 100 µM (inactive) | > 100 µM (inactive)
NC(Cc1ccc(S(=O)(=O)O)cc1)C(=O)NC(Cc1ccc(S(=O)(=O)O)cc1)C(=O)NC(Cc1ccc(S(=O)(=O)O)cc1)C(=O)O (stereo not drawn) | > 100 µM (inactive) | > 100 µM (inactive) | > 100 µM (inactive) | > 100 µM (inactive) | > 100 µM (inactive) | > 100 µM (inactive) | > 100 µM (inactive) | > 100 µM (inactive) | > 100 µM (inactive) | > 100 µM (inactive) | > 100 µM (inactive) | > 100 µM (inactive) | > 100 µM (inactive) | > 100 µM | > 100 µM (inactive) | > 100 µM (inactive) | > 100 µM (inactive) | > 100 µM (inactive) | > 100 µM (inactive) | 
CN(C)Cc1cc(C(=O)/C=C/c2ccc(Br)cc2)cc(CN(C)C)c1O |  | 7.16 µM (inactive) | 8.22 µM (inactive) | 11.7 µM (inactive) | 10.7 µM (inactive) | 4.74 µM (inactive) | 1.67 µM (inactive) | 13 µM (inactive) | 15.9 µM (inactive) | 3.24 µM (inactive) | 12.9 µM (inactive) | 2.05 µM (inactive) | 6.61 µM (inactive) | 11.8 µM | 12.2 µM (inactive) | 4.03 µM (inactive) | 4.33 µM (inactive) | 3.6 µM (inactive) | 12.6 µM (inactive) | 
